Among the data in patent publication US4123541A, “2-Aminomethyl-5-phenyloxazoles and the pharmaceutically acceptable salts thereof” (Mitsubishi Chemical Industries Limited, priority 1976, dated 1978) are inhibition in vivo, LD50 and ED50 values, retold here.

For orientation: LD50 means the dose expected to kill half of the subjects tested. As a reminder, the ED50 is the midpoint of the dose-response relation. Read a low ED50 as an effect at a small dose.

SMILES strings stand for the structures. Read-outs that look alike come from different tables or passages of the source.

Data set [1] has as its system carageenin-induced rat paw inflammation. Put plainly: Anti-inflammatory activity: carrageenin-induced rat paw inflammation (edema), oral. The class given is in vivo, rats of Wistar-King strain. Particulars: 3 hours after carrageenin, read-out: Anti-inflammatory Activity (carageenin-induced rat paw inflammation) Percent Inhibition of Swelling; for inhibition in vivo at 25 mg/kg: oral dose 25 mg/kg; for inhibition in vivo at 50 mg/kg: oral dose 50 mg/kg; for inhibition in vivo at 100 mg/kg: oral dose 100 mg/kg; for inhibition in vivo at 12.5 mg/kg: oral dose 12.5 mg/kg. The method, then: The anti-inflammatory activity of the 2-aminomethyl-5-phenyloxazoles was compared with that of aminopyrine.
Eight male rats of Wistar-King strain, each weighing between 120 to 150 grams, were used for each group. The hind paw of the rats was injected subcutaneously with 0.1 ml of 1% carrageenin suspension. The volume of the paw was measured plethysmographically 3 hours after the injection, and the difference in volume between the edematous foot and the normal foot was regarded as the degree of edema. Each percent inhibition was calculated in comparison with the control. The test compounds were administered orally 30 minutes before the injection of carrageenin.

Data set [2] in a line: Acute toxicity (LD50), mortality observed for 168 hours. Particulars: mouse, in vivo, ip. The method, then: Bipolar electrode was placed on the tail root of mouse. The mouse was stimulated with a square wave (5 m sec, 1 Hz), and the minimum voltage of squeak response was measured at 5, 10, 15, 30, 45 and 60 minutes after intraperitoneal administration of the test compound. Positive analgesic response was determined in cases where increase in the minimum voltage was observed. ED50 was calculated according to Weil's method. The acute toxicity values (LD50) of the 2-aminoethyl-5-phenyloxazoles were determined in the following manner:
LD50 was calculated according to Weil's method.

For data set [3], the system named is AcOH induced Writhing in Mice. Put plainly: Analgesic activity: (A) writhing syndrome induced by acetic acid. The conditions noted are these: Mus musculus, sc, Litchfield-Wilcoxon's method. The class given is in vivo, mice of ddY strain. The method, then: (A) Writhing syndrome induced by acetic acid Six male mice of ddY strain, each weighing between 25 to 30 grams were used in the present experiment. […] Thereafter, the total number of writhings of a group was recorded for 20 minutes, and percent inhibition was calculated in comparison with the control. ED50 was calculated according to Litchfield-Wilcoxon's method.
(An intraperitoneal irritant provokes the stretching counted in writhing tests.)

The test system of data set [4] is squeak response of mouse to electrical stimulation of the tail root. The experiment in a line: Analgesic activity: (B) electrical stimulation method. The conditions noted are these: ip, mice, Weil's method. The class given is in vivo, mice of ddY strain. The method, then:
The analgesic activity of the 2-aminomethyl-5-phenyloxazoles was compared with that of aminopyrine.
(B) Electrical stimulation method
Five male mice of ddY strain, each weighing between 25 to 30 grams were used for each group.
Bipolar electrode was placed on the tail root of mouse. The mouse was stimulated with a square wave (5 m sec, 1 Hz), and the minimum voltage of squeak response was measured at 5, 10, 15, 30, 45 and 60 minutes after intraperitoneal administration of the test compound. Positive analgesic response was determined in cases where increase in the minimum voltage was observed. ED50 was calculated according to Weil's method. The acute toxicity values (LD50) of the […] were determined in the following manner: […]

The mark [5] stands for this setting: mice, mortality for 168 hours, Weil's method.

As for `CNCc1ncc(-c2ccccc2)o1`, in data set [1], the inhibition in vivo at 25 mg/kg was found to be 5%, the inhibition in vivo at 50 mg/kg was 40% and the inhibition in vivo at 100 mg/kg stood at 48%. Also, the median lethal dose (LD50) at 168 h in data set [2] (read-out: LD50 in Mice) is 238 mg/kg. The ED50 in data set [3] is 10.1 mg/kg. Moreover, in data set [4], the ED50 amounted to 32 mg/kg.

In the case of `CCNCc1ncc(-c2ccc(Cl)cc2)o1`, in data set [1], the inhibition in vivo at 12.5 mg/kg is 16%, the inhibition in vivo at 25 mg/kg worked out at 43%, the inhibition in vivo at 50 mg/kg was found to be 65% and the inhibition in vivo at 100 mg/kg was 60%. The median lethal dose (LD50) at 168 h in data set [2] (read-out: LD50 in Mice) was 283 mg/kg. In data set [3], this compound showed an ED50 of 1.9 mg/kg. This compound also yielded an ED50 in data set [4] of 35 mg/kg.

Turning to `CN(C)Cc1ncc(-c2ccc(Cl)cc2)o1`, the inhibition in vivo at 100 mg/kg in data set [1] stood at 7%. For the same compound, the median lethal dose (LD50) at 168 h in data set [2] (read-out: LD50 in Mice) was found to be 336 mg/kg. Besides, the median effective dose (ED50) in data set [3] is 78 mg/kg; in data set [4], 77 mg/kg.

As to `CNCc1ncc(-c2ccc(Cl)cc2)o1`, the inhibition in vivo at 100 mg/kg in data set [1] was 17%. For the same compound, the LD50 at 168 h in data set [2] (read-out: LD50 in Mice) was determined as 141 mg/kg. Also, the values for the median effective dose (ED50) in data set [3] and in data set [4] were 22 mg/kg and 46 mg/kg, respectively.

Turning to `NCc1ncc(-c2ccc(Cl)cc2)o1`, in data set [1], the inhibition in vivo at 25 mg/kg stood at 25%, the inhibition in vivo at 50 mg/kg is 29% and the inhibition in vivo at 100 mg/kg was 65%. Moreover, in data set [2] (read-out: LD50 in Mice), the median lethal dose (LD50) at 168 h came out at 476 mg/kg. The ED50 in data set [3] was determined as 6 mg/kg. In data set [4], the 50% effect level (ED50) was put at a dose of 50 mg/kg.

For `CCNCc1ncc(-c2ccccc2)o1`, in data set [1], the inhibition in vivo at 50 mg/kg came to 23% and the inhibition in vivo at 100 mg/kg is 47%. Further, the LD50 at 168 h in data set [2] (read-out: LD50 in Mice) amounted to 141 mg/kg. It took a dose of 21.4 mg/kg to reach the 50% effect level in data set [4] (ED50).

Take `CNCc1ncc(-c2ccc(F)cc2)o1`: in data set [1], the inhibition in vivo at 50 mg/kg worked out at 38% and the inhibition in vivo at 100 mg/kg came out at 55%. Moreover, the LD50 at 168 h in data set [2] (setting [5]) was 141 mg/kg.

For `NCc1ncc(-c2ccccc2Cl)o1`, in data set [1], the inhibition in vivo at 25 mg/kg was 28%, the inhibition in vivo at 50 mg/kg stood at 58% and the inhibition in vivo at 100 mg/kg turned out to be 42%. For the same compound, the 50% lethal dose (LD50) at 168 h in data set [2] (setting [5]) is 283 mg/kg.

On to `CNCc1ncc(-c2cccc(Cl)c2)o1`, for which the inhibition in vivo at 100 mg/kg in data set [1] was 21%. In data set [2] (setting [5]), the median lethal dose (LD50) at 168 h is 283 mg/kg.

Regarding `CNCc1ncc(-c2ccccc2Cl)o1`, the inhibition in vivo at 100 mg/kg in data set [1] is 14%. Also, the LD50 at 168 h in data set [2] (setting [5]) is 141 mg/kg.

For `CCNCc1ncc(-c2ccccc2Cl)o1`, in data set [1], the inhibition in vivo at 100 mg/kg was determined as 14%. Moreover, the LD50 at 168 h in data set [2] (read-out: LD50 in Mice) was found to be 141 mg/kg. This compound displayed an ED50 in data set [4] of 54 mg/kg.

As to `CCNCc1ncc(-c2ccc(Br)cc2)o1`, the inhibition in vivo at 100 mg/kg in data set [1] came out at 22%. In data set [2] (setting [5]), this compound came in with a 50% lethal dose (LD50) at 168 h of 168 mg/kg.

Regarding `CCNCc1ncc(-c2ccc(Cl)c(Cl)c2)o1`, in data set [1], the inhibition in vivo at 25 mg/kg was found to be 27%, the inhibition in vivo at 50 mg/kg was 56% and the inhibition in vivo at 100 mg/kg turned out to be 68%. Further, the LD50 at 168 h in data set [2] (setting [5]) stood at 141 mg/kg.

As to `CCCNCc1ncc(-c2ccc(Cl)cc2)o1`, in data set [1], the inhibition in vivo at 50 mg/kg came to 24% and the inhibition in vivo at 100 mg/kg came to 38%. In addition, in data set [2] (read-out: LD50 in Mice), the 50% lethal dose (LD50) at 168 h was 566 mg/kg. This compound yielded an ED50 in data set [4] of 47 mg/kg.

Take `CCCNCc1ncc(-c2cccc(Cl)c2)o1`: in data set [1], the inhibition in vivo at 50 mg/kg is 4% and the inhibition in vivo at 100 mg/kg amounted to 32%. In addition, in data set [2] (setting [5]), the LD50 at 168 h stood at 283 mg/kg.

As to `CCCNCc1ncc(-c2ccc(F)cc2)o1`, in data set [1], the inhibition in vivo at 50 mg/kg stood at 45% and the inhibition in vivo at 100 mg/kg was 53%. Also, in data set [2] (read-out: LD50 in Mice), the median lethal dose (LD50) at 168 h came out at 238 mg/kg. This compound also gave an ED50 in data set [4] of 54 mg/kg.

Take `CCN(CC)Cc1ncc(-c2ccc(Cl)cc2)o1`: in data set [1], the inhibition in vivo at 50 mg/kg was found to be 24% and the inhibition in vivo at 100 mg/kg amounted to 44%. Besides, the LD50 at 168 h in data set [2] (setting [5]) is 238 mg/kg.

As to `OCCN1CCN(Cc2ncc(-c3ccc(Cl)c(Cl)c3)o2)CC1`, the inhibition in vivo at 100 mg/kg in data set [1] was found to be 14%. Further, the LD50 at 168 h in data set [2] (setting [5]) came to 141 mg/kg.

Regarding `OCCN1CCN(Cc2ncc(-c3ccccc3)o2)CC1`, the inhibition in vivo at 100 mg/kg in data set [1] came to 6%. This compound also came in with an LD50 at 168 h in data set [2] (setting [5]) of 283 mg/kg.

Take `OCCN1CCN(Cc2ncc(-c3ccc(F)cc3)o2)CC1`: in data set [1], the inhibition in vivo at 50 mg/kg was determined as 8% and the inhibition in vivo at 100 mg/kg came to 54%. This compound yielded an LD50 at 168 h in data set [2] (setting [5]) of 336 mg/kg.

With `OCCN1CCN(Cc2ncc(-c3ccc(Cl)cc3)o2)CC1`, in data set [1], the inhibition in vivo at 12.5 mg/kg is 6%, the inhibition in vivo at 25 mg/kg stood at 27%, the inhibition in vivo at 50 mg/kg stood at 57% and the inhibition in vivo at 100 mg/kg stood at 50%. Moreover, the LD50 at 168 h in data set [2] (read-out: LD50 in Mice) was 283 mg/kg. The compound further had an ED50 in data set [3] of 16 mg/kg. In data set [4], it took a dose of 30.8 mg/kg to reach the 50% effect level (ED50).

With `Cc1c(N(C)C)c(=O)n(-c2ccccc2)n1C` [Aminopyrine, reference compound], in data set [1], the inhibition in vivo at 12.5 mg/kg was 9%, the inhibition in vivo at 25 mg/kg worked out at 23%, the inhibition in vivo at 50 mg/kg was determined as 47% and the inhibition in vivo at 100 mg/kg came to 65%. Also, in data set [2] (setting [5]), the LD50 at 168 h came to 270 mg/kg. For the same compound, the ED50 in data set [3] is 37 mg/kg. In addition, in data set [4], the median effective dose (ED50) turned out to be 96 mg/kg.
